The numbers were not newly measured in paper PMC5939605, “Highly luminescent, biocompatible ytterbium(III) complexes as near-infrared fluorophores for living cell imaging” (Chemical Science, 2018), which cites them from elsewhere.

On the set-up of series [1]: method as in PMID 12895128. The following applies: in CH2Cl2 ref 53; cited from earlier work.
On the set-up of series [2]: method as in PMID 22908122. The following applies: in CHCl3 ref 59; cited from earlier work.

Turning to “5,10,15,20-tetraphenylporphyrin-Yb(III)-[(cyclopentadienyl)tris(di(ethyl)phosphito)cobaltate] [YbTPP(LOEt)]”, the “NIR luminescence quantum yield of reference” value in series [1] was 0.024.

`C1=Cc2nc1c(-c1ccccc1)c1nc(c(-c3ccccc3)c3ccc([nH]3)c(-c3ccccc3)c3ccc([nH]3)c2-c2ccccc2)C=C1` [TPP, tetraphenylporphyrin]: the “singlet oxygen quantum yield of reference (ΦΔ)” value in series [2] was 0.55.
